This is an account of results in patent publication US9828366B2, “Bicyclic derivatives and pharmaceutical composition including the same” (HANMI PHARM. CO., LTD., priority 2014, dated 2017).

The structures appear in SMILES notation.

The first assay has as its system C57BL/6 male mice. Put plainly: Urinary glucose excretion test (UGE test). Format: in vivo. The following applies: 3 mg/kg oral (Examples 13 to 38), 2 g/kg glucose after 30 minutes, urine collected for 24 hours. The method, then: The pharmaceutical efficacies of the compounds prepared in the Examples were investigated by a urinary glucose excretion test using C57BL/6 male mice (8-week-old, prepared and supplied from Orient Chemical Co. Ltd.).
Two mice were used in each group. The mice were fasted for 16 hours, and the compound of each of the Examples [10 mg/kg of the compound of Examples 1 to 12; and 3 mg/kg of the compound of Examples 13 to 38] was dissolved in a vehicle [a mixed solution of 5% 1-methyl-2-pyrrolidinone, 20% PEG, and 75% 20 mM sodium diphosphate], and orally administered to the mice. After 30 minutes, 2 g/kg of glucose was orally administered to the mice in all the groups. Thereafter, the mice were immediately put into a metabolic cage, and urine was collected for 24 hours. The mice were freely fed an hour after the administration of glucose.
The results obtained from the test, that is, the results obtained by measuring urinary glucose excretion in the C57BL/6 male mice according to the compounds of the Examples, are listed in Table 5.
In the case of `Cc1ccc(Cc2cc([C@@H]3O[C@H](CO)[C@@H](O)[C@H](O)[C@H]3O)cc3c2CCC3)cc1F` [Example 25, (2S,3R,4R,5S,6R)-2-(7-(3-fluoro-4-methylbenzyl)-2,3-dihydro-1H-inden-5-yl)-6-(hydroxymethyl)tetrahydro-2H-pyran-3,4,5-triol], the UGE was found to be 5.5 mg/20 g/24 hr.
The same measure, in the same setting: under `CCCc1ccc(Cc2cc([C@@H]3O[C@H](CO)[C@@H](O)[C@H](O)[C@H]3O)cc3c2CCC3)cc1` [Example 17, (2R,3S,4R,5R,6S)-2-(hydroxymethyl)-6-(7-(4-propylbenzyl)-2,3-dihydro-1H-inden-5-yl)tetrahydro-2H-pyran-3,4,5-triol] stands 1.0 mg/20 g/24 hr; under `CCOc1ccc(Cc2cc([C@@H]3O[C@H](CO)[C@@H](O)[C@H](O)[C@H]3O)cc3c2CCC3)c(F)c1` [Example 21, (2S,3R,4R,5S,6R)-2-(7-(4-ethoxy-2-fluorobenzyl)-2,3-dihydro-1H-inden-5-yl)-6-(hydroxymethyl)tetrahydro-2H-pyran-3,4,5-triol], 4.2 mg/20 g/24 hr; under `Cc1ccc(Cc2cc([C@@H]3O[C@H](CO)[C@@H](O)[C@H](O)[C@H]3O)cc3c2CCC3)c(F)c1` [Example 26, (2S,3R,4R,5S,6R)-2-(7-(2-fluoro-4-methylbenzyl)-2,3-dihydro-1H-inden-5-yl)-6-(hydroxymethyl)tetrahydro-2H-pyran-3,4,5-triol], 4.8 mg/20 g/24 hr.
Still for that read-out and setting: under `CC(C)c1ccc(Cc2cc([C@@H]3O[C@H](CO)[C@@H](O)[C@H](O)[C@H]3O)cc3c2CCC3)cc1` [Example 18, (2R,3S,4R,5R,6S)-2-(hydroxymethyl)-6-(7-(4-isopropylbenzyl)-2,3-dihydro-1H-inden-5-yl)tetrahydro-2H-pyran-3,4,5-triol] stands 7.0 mg/20 g/24 hr; under `CCOc1ccc(Cc2cc([C@@H]3O[C@H](CO)[C@@H](O)[C@H](O)[C@H]3O)cc3c2CCC3)cc1F` [Example 20, (2S,3R,4R,5S,6R)-2-(7-(4-ethoxy-3-fluorobenzyl)-2,3-dihydro-1H-inden-5-yl)-6-(hydroxymethyl)tetrahydro-2H-pyran-3,4,5-triol], 0.6 mg/20 g/24 hr; under `CCOc1ccc(Cc2cc([C@@H]3O[C@H](CO)[C@@H](O)[C@H](O)[C@H]3O)cc3c2CCC3)cc1` [Example 13, (2S,3R,4R,5S,6R)-2-(7-(4-ethoxybenzyl)-2,3-dihydro-1H-inden-5-yl)-6-(hydroxymethyl)tetrahydro-2H-pyran-3,4,5-triol], 1.7 mg/20 g/24 hr.

Staying with this assay, now noted: 10 mg/kg oral (Examples 1 to 12), 2 g/kg glucose after 30 minutes, urine collected for 24 hours.
For `OC[C@H]1O[C@@H](c2cc3c(c(Cc4ccc(F)cc4)c2)OCC3)[C@H](O)[C@@H](O)[C@@H]1O` [Example 6, (2S,3R,4R,5S,6R)-2-(7-(4-fluorobenzyl)-2,3-dihydrobenzofuran-5-yl)-6-(hydroxymethyl)tetrahydro-2H-pyran-3,4,5-triol], the UGE is listed as 3.9 mg/20 g/24 hr.
For the compound `CCOc1ccc(Cc2cc([C@@H]3O[C@H](CO)[C@@H](O)[C@H](O)[C@H]3O)cc3c2OCC3)cc1F` [Example 9, (2S,3R,4R,5S,6R)-2-(7-(4-ethoxy-3-fluorobenzyl)-2,3-dihydrobenzofuran-5-yl)-6-(hydroxymethyl)tetrahydro-2H-pyran-3,4,5-triol], the UGE is reported as 4.6 mg/20 g/24 hr.
As for `CCc1ccc(Cc2cc([C@@H]3O[C@H](CO)[C@@H](O)[C@H](O)[C@H]3O)cc3c2OCC3)cc1` [Example 2, (2S,3R,4R,5S,6R)-2-(7-(4-ethylbenzyl)-2,3-dihydrobenzofuran-5-yl)-6-hydroxymethyl-tetrahydro-2H-pyran-3,4,5-triol], the UGE was 8.3 mg/20 g/24 hr.
Still for that read-out and setting: under `OC[C@H]1O[C@@H](c2cc3c(c(Cc4ccc(OC(F)(F)F)cc4)c2)OCC3)[C@H](O)[C@@H](O)[C@@H]1O` [Example 5, (2R,3S,4R,5R,6S)-2-hydroxymethyl-6-(7-(4-trifluoromethoxybenzyl)-2,3-dihydrobenzofuran-5-yl)tetrahydro-2H-pyran-3,4,5-triol] stands 3.7 mg/20 g/24 hr.
In the case of `OC[C@H]1O[C@@H](c2cc3c(c(Cc4ccc5c(c4)OCCO5)c2)OCC3)[C@H](O)[C@@H](O)[C@@H]1O` [Example 7, (2S,3R,4R,5S,6R)-2-(7-((2,3-dihydrobenzo[b][1,4]dioxin-6-yl)methyl)-2,3-dihydrobenzofuran-5-yl)-6-(hydroxymethyl)tetrahydro-2H-pyran-3,4,5-triol], the UGE is 2.8 mg/20 g/24 hr.
For the compound `CCOc1ccc(Cc2cc([C@@H]3O[C@H](CO)[C@@H](O)[C@H](O)[C@H]3O)cc3c2OCC3)c(F)c1` [Example 10, (2S,3R,4R,5S,6R)-2-(7-(4-ethoxy-2-fluorobenzyl)-2,3-dihydrobenzofuran-5-yl)-6-(hydroxymethyl)tetrahydro-2H-pyran-3,4,5-triol], the UGE came out at 3.2 mg/20 g/24 hr.
Regarding `CCOc1ccc(Cc2cc([C@@H]3O[C@H](CO)[C@@H](O)[C@H](O)[C@H]3O)cc3c2OCC3)cc1` [Example 1, (2S,3R,4R,5S,6R)-2-(7-(4-ethoxybenzyl)-2,3-dihydrobenzofuran-5-yl)-6-hydroxymethyl-tetrahydro-2H-pyran-3,4,5-triol], the UGE is listed as 1.2 mg/20 g/24 hr.
The same measure, in the same setting: under `OC[C@H]1O[C@@H](c2cc3c(c(Cc4ccc(C(F)(F)F)cc4)c2)OCC3)[C@H](O)[C@@H](O)[C@@H]1O` [Example 4, (2R,3S,4R,5R,6S)-2-hydroxymethyl-6-(7-(4-trifluoromethylbenzyl)-2,3-dihydrobenzofuran-5-yl)tetrahydro-2H-pyran-3,4,5-triol] stands 4.6 mg/20 g/24 hr; under `OC[C@H]1O[C@@H](c2cc3c(c(Cc4ccc(O)cc4)c2)OCC3)[C@H](O)[C@@H](O)[C@@H]1O` [Example 11, (2S,3R,4R,5S,6R)-2-(7-(4-hydroxybenzyl)-2,3-dihydrobenzofuran-5-yl)-6-(hydroxymethyl)tetrahydro-2H-pyran-3,4,5-triol], 3.0 mg/20 g/24 hr; under `OC[C@H]1O[C@@H](c2cc3c(c(Cc4ccc(OCC5CC5)cc4)c2)OCC3)[C@H](O)[C@@H](O)[C@@H]1O` [Example 8, (2S,3R,4R,5S,6R)-2-(7-(4-(cyclopropylmethoxy)benzyl)-2,3-dihydrobenzofuran-5-yl)-6-(hydroxymethyl)tetrahydro-2H-pyran-3,4,5-triol], 4.3 mg/20 g/24 hr.
The same measure, in the same setting: under `CCCc1ccc(Cc2cc([C@@H]3O[C@H](CO)[C@@H](O)[C@H](O)[C@H]3O)cc3c2OCC3)cc1` [Example 3, (2R,3S,4R,5R,6S)-2-hydroxymethyl-6-(7-(4-n-propylbenzyl)-2,3-dihydrobenzofuran-5-yl)-tetrahydro-2H-pyran-3,4,5-triol] stands 3.7 mg/20 g/24 hr; under `CS(=O)(=O)CCCOc1ccc(Cc2cc(C3O[C@H](CO)[C@@H](O)[C@H](O)[C@H]3O)cc3c2OCC3)cc1` (stereo partly shown) [Example 12], 0 mg/20 g/24 hr.
